≈ marks a conversion by molar mass, not a printed value.
Tests used:
[1] = Antibacterial activity against multidrug-resistant Salmonella enterica serovar Virchow B100 expressing floR2; type: functional, Salmonella enterica subsp. enterica serovar Virchow
[2] = test system: Salmonella typhimurium; assay: Antibacterial activity against multidrug-resistant Salmonella enterica subsp. enterica serovar Typhimurium BN9181 expressing floR; type: functional
[3] = Antibacterial activity against multidrug-resistant Salmonella enterica serovar Virchow B98 expressing floR2; type: functional, Salmonella enterica subsp. enterica serovar Virchow
[4] = Antibacterial activity against multidrug-resistant Salmonella enterica serovar Virchow B94 expressing floR2; type: functional, Salmonella enterica subsp. enterica serovar Virchow

| Structure (SMILES) | MIC [1] [µg/mL] | MIC [2] [µg/mL] | MIC [3] [µg/mL] | MIC [4] [µg/mL] |
| --- | --- | --- | --- | --- |
| O=C(N[C@H](CO)[C@H](O)c1ccc([N+](=O)[O-])cc1)C(Cl)Cl [CHLORAMPHENICOL] | > 256 | 256 (≈ 792 µM) | > 256 | > 256 |
| CS(=O)(=O)c1ccc([C@@H](O)[C@@H](CF)NC(=O)C(Cl)Cl)cc1 [FLORFENICOL] | 32 (≈ 89.3 µM) | 64 (≈ 179 µM) | 32 (≈ 89.3 µM) | 32 (≈ 89.3 µM) |
